Laboratory results reported in PubChem BioAssay (NCI).
Where “and” joins values, the source holds several entries; their conditions need not be identical. Identical values can stand only once.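 Five compound concentrations were applied to cells in 96-well plates for 48 hours; endpoints were derived by simple linear interpolation of the resulting dose-response curve. GI50 is the concentration that inhibits growth by half. At the TGI there is no net growth.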 Where a SMILES comes first, the peptide text is derived from it. The star is where a group is joined. Palmitoyl = CCCCCCCCCCCCCCCC(=O)*

Tests used:
Test in all cases: NCI anticancer screen, dose series, 48 h
[1] = test system: MDA-MB-231 breast
[2] = test system: RPMI-8226 leukemia
[3] = test system: T-47D breast
[4] = test system: CCRF-CEM leukemia
[5] = test system: A498 renal
[6] = test system: HL-60(TB) leukemia
[7] = test system: OVCAR-3 ovarian
[8] = test system: SF-295 CNS
[9] = test system: DU-145 prostate
[10] = test system: NCI-H522 lung

Row | SMILES | TGI [1] | TGI [2] | TGI [3] | TGI [4] | TGI [5] | TGI [6] | TGI [7] | TGI [8] | TGI [9] | TGI [10] | GI50 [1] | GI50 [2] | GI50 [3] | GI50 [4] | GI50 [5] | GI50 [6] | GI50 [7] | GI50 [8] | GI50 [9] | GI50 [10]
1 | CC(=O)Nc1ncc2c(n1)-c1ccccc1OC2 | > 100 µM | > 100 µM | > 100 µM | > 100 µM | > 100 µM | > 100 µM | > 100 µM | > 100 µM | > 100 µM | > 100 µM |  |  |  |  |  |  |  |  |  | 
2 | CCCCCCCCCCCCCCCC(=O)NC(CCCCN)C(=O)NCC(=O)NC(Cc1ccccc1)C(=O)N1CCCC1C(=O)NC(CO)C(=O)NC(Cc1ccc(O)cc1)C(=O)NC(CCCCN)C(=O)NC(CC(C)C)C(=O)NC(CCCN=C(N)N)C(=O)N1CCCC1C(=O)NCC(N)=O (stereo not drawn) (Palmitoyl-KGFPSYKLRPG-NH2; configuration not given here) | 33.2 µM | 32.5 µM | 45.2 µM | 40.2 µM | > 100 µM | 39.9 µM | 76.5 µM | 72.6 µM | 49.4 µM | 50.6 µM | 17.3 µM | 13.1 µM | 18 µM | 20.5 µM | 34.2 µM | 19.1 µM | 28.6 µM | 27.1 µM | 20.2 µM | 22.1 µM
3 | COC(=O)c1ccc(OCc2ccc3nc(-c4ccccc4)c(Cl)nc3c2)cc1 | 60.2 µM | > 100 µM | > 100 µM | > 100 µM | > 100 µM | > 100 µM | > 100 µM | > 100 µM | > 100 µM | 45.7 µM |  |  |  |  |  |  |  |  |  | 
4 | C/C(=C/CC[C@](C)(OC1OC(CO)C(O)C(O)C1O)[C@H]1CC[C@]2(C)[C@@H]1CC[C@@H]1[C@@]3(C)CC[C@H](O)C(C)(C)[C@@H]3C[C@H](O)[C@]12C)CO (stereo partly drawn) | 91.5 µM | 28.3 µM | 60.4 µM | 95.9 µM | > 100 µM | 49.9 µM | 79.7 µM | 35.1 µM | > 100 µM | 42.7 µM |  |  |  |  |  |  |  |  |  | 
5 | CC(C)[Si]1(C(C)C)OCC2OC(n3cnc4c(N)ncnc43)C(N)C2O[Si](C(C)C)(C(C)C)O1 (stereo not drawn) | 33.1 µM | 7.72 µM | 30.5 µM | > 71.6 µM | 45.5 µM | > 28.2 µM | 20.6 µM | 21.5 µM | 31.4 µM | 26.4 µM |  |  |  |  |  |  |  |  |  | 
6 | Cc1cnc2[nH]c(-c3ccccc3)cc(=O)c2c1 | > 100 µM | > 8.62 µM | > 100 µM | 2.79 µM |  | 0.226 µM |  |  | > 100 µM | 0.526 µM |  |  |  |  |  |  |  |  |  | 
7 | COc1ccc(CC2C(=O)NC(C)C(=O)N(C)C3Cc4ccc(cc4)Oc4cc(ccc4O)CC(C(=O)NC(C)C(=O)NC(C)C(=O)N2C)N(C)C3=O)cc1 (stereo not drawn) | 0.0671 µM | 0.0327 µM and 0.0179 µM | 0.201 µM and 0.0219 µM | 0.122 µM | 0.0147 µM and 0.0709 µM |  | 0.0438 µM |  | 0.00288 µM |  |  | < 0.0001 µM |  | < 0.0001 µM |  | < 0.0001 µM | 0.000244 µM |  |  | < 0.0001 µM
8 | CCOP(=O)(OCC)C(F)(F)CC1CCCCC1 | > 10 µM | > 10 µM | > 10 µM | > 10 µM | > 10 µM | > 10 µM | > 10 µM | > 10 µM | > 10 µM |  |  |  |  |  |  |  |  |  |  | 
9 | COC(=O)C1(Cc2ccccc2)Cc2ccccc2C1=O (stereo not drawn) | > 100 µM | > 100 µM | > 100 µM | > 100 µM |  | 51.1 µM | > 100 µM | > 100 µM | > 100 µM |  |  |  |  |  |  |  |  |  |  | 
10 | COCCCN1C(=O)C2c3[nH]c4ccccc4c3C3CCC(C(C)(C)C)CC3C2C1=O (stereo not drawn) | 56.3 µM | 56.1 µM | > 100 µM | 52.9 µM |  | 54.5 µM | 35.9 µM | 56.3 µM | > 100 µM | 55.4 µM |  |  |  |  |  |  |  |  |  | 
11 | CN(C)CCNc1nc2ccccc2c2c1C(=O)c1ccccc1-2 | 2.62 µM | 0.599 µM | 4.12 µM | 4.05 µM | 1.24 µM | 0.812 µM | 8.4 µM | 3.31 µM | 1.51 µM | 0.895 µM |  |  |  |  |  |  |  |  |  | 
12 | CC1=CC(c2ccccc2)n2c(nc3cc4ccccc4cc32)N1 (stereo not drawn) | > 100 µM | > 100 µM | > 100 µM | > 100 µM | > 100 µM | > 100 µM | > 100 µM | > 100 µM | > 100 µM |  |  |  |  |  |  |  |  |  |  | 
13 | O=C(NCCCCl)c1c(O)c2ccccc2[nH]c1=O | > 100 µM | > 100 µM | > 100 µM | > 100 µM | > 100 µM | > 100 µM | > 100 µM | > 82.5 µM | > 100 µM | > 100 µM |  |  |  |  |  |  |  |  |  | 
14 | COc1cc(C2S/C(=C/c3ccccc3)C(=O)N2c2ccc(Cl)cc2)cc(OC)c1OC (stereo not drawn) | > 96.6 µM | > 100 µM | > 25.6 µM | > 100 µM | > 100 µM | 85 µM | > 100 µM | > 100 µM | > 100 µM | 21.2 µM |  |  |  |  |  |  |  |  |  | 
15 | CN(Cc1nc2c(N)nc(N)nc2nc1N)c1ccc(C(=O)NC(CCC(=O)O)C(=O)O)cc1 (stereo not drawn) | > 100 µM | > 100 µM | > 100 µM | > 100 µM | > 100 µM | > 100 µM | > 100 µM | > 100 µM | > 100 µM | > 100 µM |  |  |  |  |  |  |  |  |  | 
16 | COc1cccc(N2N=C3c4ccccc4-n4c(nc5ccccc54)C3C2N)c1 (stereo not drawn) | > 100 µM | > 100 µM | > 100 µM |  | > 100 µM | > 100 µM | > 100 µM | > 100 µM | > 100 µM | > 100 µM |  |  |  |  |  |  |  |  |  | 
17 | COc1ccc(C[C@H]2COC(=O)[C@@H]2Cc2cc(OC)c(OC)c(OC)c2)cc1OC | > 100 µM | > 100 µM | > 65.2 µM | > 100 µM |  | > 100 µM | > 100 µM | > 100 µM | > 100 µM | > 100 µM |  |  |  |  |  |  |  |  |  | 
18 | CCOc1ccc(NC(=S)/N=C/C(C(=O)Nc2ccccc2C)=C(\C)O)cc1 | > 100 µM | > 100 µM | > 100 µM |  |  | > 100 µM | > 100 µM | > 100 µM | > 100 µM | > 100 µM |  |  |  |  |  |  |  |  |  | 
19 | BrCC[P+](c1ccccc1)(c1ccccc1)c1ccccc1 | 34.8 µM | 8.08 µM | 5.17 µM | 12.2 µM | 41.3 µM | 5.33 µM | 11.7 µM | > 100 µM | 19.8 µM |  |  |  |  |  |  |  |  |  |  | 
20 | C=C1C(=O)O[C@H]2C(=O)[C@H](C)CCC[C@@](C)(O)/C=C\C[C@@]3(C)O[C@@H]3C[C@@H]12 | 43.6 µM | 33.7 µM | 42.3 µM | 12.3 µM | 56.1 µM |  | 24.3 µM | 17.5 µM | 27.6 µM | 9.08 µM |  |  |  |  |  |  |  |  |  | 
